Broadly, the melting point is the temperature, or range, at which the solid turns liquid.

Turning to `CC(=O)SCC(CCCc1ccccc1)C(=O)Nc1cccc(C(=O)O)c1` (configuration not stated), the melting point lay in the range of 142 to 145 °C. The value for `CCOC(=O)c1c2ccc(CC(=O)NOCC(=O)N3CCCCC3)ccc-2c(C(=O)OCC)c1N` was 153 to 155 °C. The value for `COC(=O)NC(CCSC)C(N)=O` (racemic) was 93 to 94 °C; that for `O=C1NC(=O)c2ccccc2/C1=C/Nc1ccc2ncccc2c1` was 277 to 278 °C; that for `CCOc1ncccc1OCC1(c2onc(-c3ccc(O)cc3)c2-c2ccccc2)CC1` was 190 to 192 °C. The value for `COc1cc(Nc2nccc(-c3ccc(N4CCN(CCCO)CC4)nc3)n2)cc(OC)c1OC` was 116 to 117 °C; that for `O=S(=O)(c1c(F)c(F)c(F)c(F)c1F)c1c(F)c(F)c(F)c(F)c1F` was 129 °C; that for `CS(=O)(=O)c1ccc(-c2oc(C(F)F)cc(=O)c2-c2ccc(Cl)cc2)cc1` was 168 to 170 °C. Take `Cc1ccc(C(=O)Nc2ccc(-n3ccnc3C)c(C(F)(F)F)c2)cc1Nc1nccc(-c2cccnc2)n1`: the melting point fell in the range of 154 to 163 °C. In turn, `Nc1c(-c2ccc(-c3cccnc3)cc2)nc2ccc(F)cc2c1C(=O)O` had a melting point of 260 to 268 °C. Take `CC(N1CCC(Cc2ccccc2)CC1)C(O)(NC(=O)c1ccccc1)c1ccc(N)cc1` (configuration not stated): the melting point was 126 to 129 °C. In the case of `N#CC1CCc2cc(C(N)=O)ccc2C1` (configuration not stated), the melting point fell in the range of 180 to 182 °C. Consider `CC1CC(=O)N(c2ccc(F)cc2)C(=S)C1` (configuration not stated), for which the melting point lay within 84.5 to 87.5 °C. The value for `Nc1nc2ccccc2c2c1nc(-c1ccccc1)n2CCOc1ccccc1` was 182 to 185 °C; that for `C[Si](Cl)(Cl)C(c1ccccc1)(c1ccccc1)c1ccccc1` was 170 to 172 °C. The compound `CCOc1cc(-c2nc3ccccc3[nH]2)n[nH]1` came in with a melting point of 217 to 220 °C.

Take `NCC1CCN(CC(=O)Nc2cccc3c2C(=O)c2c-3n[nH]c2-c2ccc(N3CCOCC3)cc2)CC1`: the melting point was determined as 240 °C. As to `O=C1c2ccc(O)cc2OCN1CCO`, the melting point lay within 182 to 184 °C. The value for `CCCCCCCCCCC(O)C(O)CN` (configuration not stated) was 98 to 100 °C; that for `Cc1nc(NC(=O)C2c3ccccc3Oc3ccccc32)no1` was 186 °C; that for `CCCOCCN(C)c1ccc(-c2ccc3c(c2)C=C(C(=O)Nc2ccc(CN(C)C4CCOCC4)cc2)CCS3(=O)=O)cc1` was 193 to 194 °C.

Take `CN(C)c1cc(F)c(S(=O)(=O)N(C)C)cc1-n1c(=O)cc(C(F)(F)F)n(C)c1=O`: the melting point was in the range of 185 to 194 °C. The value for `O=C(O)COC1Cc2sc(S(=O)(=O)C(c3ccccc3F)c3ccccc3F)nc2-c2ccccc21` (configuration not stated) was 204 to 208 °C; that for `COC(=O)c1cc(Cn2cncc2C)cc(C(C)(C)C#N)c1` was 101 to 104 °C; that for `CC12C=CC(=O)C=C1CCC1C2=CCC2(C)C(C(=O)CCl)=CCC12` (configuration not stated) was 136 to 138 °C.

Regarding `COc1ccc(-c2nc(-c3ccccc3)c(-c3ccncc3)n2C)cc1`, the melting point lay in the range of 193 to 194 °C. `COC(=O)c1cc(C(C)O)c(C(F)(F)F)cc1NC(C)=O` (configuration not stated): the melting point fell in the range of 120 to 122 °C. The value for `CSC(=NC#N)NCCCOc1cccc(CN2CCCC2)c1` was 107 to 108 °C; that for `CCOC(=O)Cc1sc(SCc2cc(O)nc(C)n2)nc1C` was 131 to 132 °C. The value for `Brc1cccc(Sc2ncccc2OCCCc2cccnc2)c1` was 75 to 76 °C.

For `CCCCCCCCCCCCCCCCOc1ccc(OCC(=O)NCc2ccccn2)cc1`, the melting point was 68 to 69 °C. The value for `S=C(NCN1CCOCC1)C(CN1CCOCC1)c1ccccn1` (configuration not stated) was 109 to 111 °C; that for `CNC(=O)c1cc2c(Oc3ccc(-c4noc(C(F)(F)F)n4)cc3)cncc2s1` was 174 to 176 °C; that for `Cc1ccc(Nc2ccccn2)c(C)c1[N+](=O)[O-]` was 178 to 179 °C.

Regarding `CCCC(O)c1cc(-c2ccc(C(F)(F)F)n(C)c2=O)c(F)cc1Cl` (configuration not stated), the melting point is 120 to 122 °C. Compound `CCCN1CCC(C(=O)Nc2ccc(CN(C)C3CCOCC3)cc2)=Cc2cc(Br)ccc21` gave a melting point of 134 to 136 °C.

Compound `CC(C)CC(NC(=O)OCc1ccccc1)C(=O)NC(C(=O)Nc1n[nH]c(=S)s1)C(C)C` (configuration not stated) showed a melting point of 146 °C.

Take `CC(=O)OC1CSC(Oc2cccnc2-c2cccnc2)C(OC(C)=O)C1OC(C)=O` (configuration not stated): the melting point was 70 °C. On to `COCCc1nc2c(N)nc3ccccc3c2n1CCCNS(=O)(=O)c1ccccc1`, for which the melting point lay in the range of 149 to 151 °C. The value for `CCS(=O)(=O)N1CCN(Cc2ccc(COc3cccc4c3CN(C3CCC(=O)NC3=O)C4=O)cc2)CC1` (configuration not stated) was 135 to 137 °C; that for `CC[C@H]1CN(c2c(F)cc3c(=O)c(C(=O)O)cn([C@@H]4C[C@@H]4F)c3c2OC)C[C@H]1NC` was 143 to 145 °C; that for `Cn1c(CCCOc2ccc(CC3SC(=O)N(C(c4ccccc4)(c4ccccc4)c4ccccc4)C3=O)cc2)nc2cccnc21` (configuration not stated) was 76 to 81 °C. The value for `Ic1c[nH]c2ncccc12` was 201 to 204 °C; that for `CC(=O)Nc1ccc2c(c1)CC(CN1CCC(c3c[nH]c4cc(Cl)ccc34)CC1)C2` (configuration not stated) was 151 to 152 °C. Take `CC(C)Oc1ccc(C=O)c(Oc2ccc(Cl)cc2Cl)n1`: the melting point was 73 to 74 °C. The value for `CCCCCc1ccc(OCC(O)CCCCCCC(=O)O)cc1` (configuration not stated) was 105 to 106 °C; that for `O=C(C[C@@H](CCCC1CCCCC1)c1nc(CNC2CCOCC2)no1)NO` was 109 to 110 °C; that for `O=c1c2ccccc2nc(-c2ccccc2)n1CCN1CCC(c2c[nH]c3ccccc23)CC1` was 191 °C.

In the case of `COC(C)CCC1(O)C2=NCCCN2c2cccc(Cl)c21` (configuration not stated), the melting point fell in the range of 164 to 165 °C. In turn, `CCC1(C)OC1COc1ccc(C(=O)c2ccccc2)cc1` (configuration not stated) had a melting point of 66 to 67 °C. In turn, `Cc1oc(C=Cc2ccc(Cl)cc2)nc1CC#N` showed a melting point of 124 to 125 °C. `Cc1cc(C=CC#N)cc(C(=O)c2[nH]c(=O)[nH]c(=O)c2C(C)C)c1`: the melting point lay in the range of 233 to 235 °C. The compound `CCOc1ccc(NS(=O)(=O)c2ccc(NN=CCCCN3C(=O)c4ccccc4C3=O)cc2)cc1` returned a melting point of 156 to 158 °C. `CC(=O)Nc1nc2c(Oc3cc(-c4ccc(C(F)(F)F)cc4)c(-c4ccc(F)cc4)cn3)cccc2s1` showed a melting point of 112 to 130 °C.

Compound `COc1ccc2c3cc(C)ccc3n(CC3CCCCC3)c2c1` displayed a melting point of 136 to 137 °C. The value for `CCN(CC)C(=O)c1cc(-c2ccc(OC)cc2)c2ccccc2c1` was 147 to 149 °C; that for `CCCNC(=O)c1ccc(-c2ccc3nnn(C(C)(C)c4ccc5ncccc5c4)c3n2)cc1F` was 162 to 164 °C; that for `CCCNC(=NC#N)Nc1cccnc1` was 164 to 165 °C. `CCN(CC)C(=O)c1cc2ccccc2[nH]1` showed a melting point of 108 to 110 °C. `O=c1oc(-c2c(F)cccc2F)nn1-c1ccccc1Br` showed a melting point of 111 to 114 °C. Compound `CC(=O)OC1CCC2(C)C(CCC3C2CCC2(C)C3CCC2C(C)(O)C#N)C1` (configuration not stated) came in with a melting point of 168 to 178 °C. The value for `O=[N+]([O-])c1ccc2[nH]c(C(F)(F)F)c([N+](=O)[O-])c2c1` was 225 to 228 °C.

Source of the values: a melting point compilation (Tetko et al.; mined from patent text by program, amines drawn as free bases though some values may be those of a salt).
